The values that follow come from ChEMBL document CHEMBL1777806, “Three new cytotoxic aryltetralin lignans from Sinopodophyllum emodi” (Bioorg Med Chem Lett, 2011).

One experiment has as its system KB. Description: Cytotoxicity against human KB cells after 72 hrs by MTT assay. It counts as functional, cell-based. On the technique in general: Tetrazolium assays rely on reduction of a dye to a coloured formazan, in cell work by metabolically active cells.
Another experiment deals with HeLa. Nature of the experiment: Cytotoxicity against human HeLa cells after 72 hrs by MTT assay. The experiment is classed as functional, cell-based.

Where only a bound is given, the exact number is not on record here.

One may read the IC50 as the midpoint of a concentration-inhibition curve. Regarding `COc1cc([C@@H]2c3cc4c(cc3[C@H](O)[C@H]3COC(=O)[C@H]23)OCO4)cc(OC)c1OC(C)=O`, the results for the IC50 in the experiment with KB and with HeLa were 0.05 µM and 0.076 µM, respectively.

Turning to `COc1cc([C@@H]2c3cc4c(cc3[C@@H](O[C@@H]3O[C@H](CO)[C@@H](O)[C@H](O)[C@H]3O)[C@H]3COC(=O)[C@H]23)OCO4)cc(OC)c1O`, the IC50 in the experiment with KB is less than 0.01 µM; in the experiment on HeLa it was 0.048 µM.

Consider `COc1cc([C@@H]2c3cc4c(cc3[C@H](O[C@@H]3O[C@H](CO)[C@@H](O)[C@H](O)[C@H]3O)[C@H]3COC(=O)[C@H]23)OCO4)cc(OC)c1O`, for which the half-inhibitory concentration (IC50) is 9.51 µM in the experiment on KB and 5.33 µM in the experiment with HeLa.

As to `COc1cc([C@@H]2c3cc4c(cc3C[C@H]3COC(=O)[C@@H]32)OCO4)cc(OC)c1O[C@@H]1O[C@H](CO)[C@@H](O)[C@H](O)[C@H]1O`, the half-inhibitory concentration (IC50) was 2.09 µM with KB and 0.87 µM in the experiment with HeLa.

On to `COc1cc([C@@H]2c3cc4c(cc3[C@H](O[C@@H]3O[C@H](CO[C@@H]5O[C@H](CO)[C@@H](O)[C@H](O)[C@H]5O)[C@@H](O)[C@H](O)[C@H]3O)[C@H]3COC(=O)[C@@H]23)OCO4)cc(OC)c1OC`, for which the IC50 in the experiment on KB and in the experiment with HeLa was greater than 100 µM in each case.

Take `COc1cc([C@@H]2c3cc4c(cc3[C@H](O)[C@H]3COC(=O)[C@H]23)OCO4)cc(OC)c1O`: the IC50 came out at 0.064 µM in the experiment with KB and 0.08 µM with HeLa.

As for `COc1cc([C@@H]2c3cc4c(cc3[C@H](O[C@@H]3O[C@H](CO)[C@@H](O)[C@H](O)[C@H]3O)[C@H]3COC(=O)[C@H]23)OCO4)cc(OC)c1OC`, the 50% inhibitory concentration (IC50) with KB came out at 9.25 µM; in the experiment on HeLa, 6.65 µM.

As to `COc1cc(-c2c3c(c(O)c4cc5c(cc24)OCO5)COC3=O)cc(OC)c1O`, the IC50 in the experiment with KB is 84.7 µM; in the experiment with HeLa, greater than 100 µM.

On to `COc1cc([C@@H]2c3cc(O)c(O)cc3[C@H](O)[C@H]3COC(=O)[C@H]23)cc(OC)c1O`, for which the IC50 in the experiment with KB is greater than 100 µM; in the experiment with HeLa, 79.6 µM.

As for `COc1cc([C@@H]2c3cc4c(cc3C[C@H]3COC(=O)[C@@H]32)OCO4)cc(OC)c1O` [4'-DEMETHYLDEOXYPODOPHYLLOTOXIN], the IC50 in the experiment with KB was 0.0078 µM; in the experiment on HeLa, 0.074 µM.

`COc1cc([C@@H]2c3cc(O)c(O)cc3[C@H](O)[C@H]3COC(=O)[C@H]23)cc(OC)c1OC` [6,7-O,O-DEMETHYLENEPODOPHYLLOTOXIN]: the IC50 in the experiment with KB and with HeLa was greater than 100 µM throughout.

For `COc1cc(-c2c3c(c(O)c4cc5c(cc24)OCO5)COC3=O)cc(OC)c1OC` [DEHYDROPODOPHYLLOTOXIN], the IC50 in the experiment on KB is 9.79 µM; with HeLa, 8.28 µM.

Turning to `COc1cc([C@@H]2c3cc4c(cc3C[C@H]3COC(=O)[C@@H]32)OCO4)cc(OC)c1OC` [DESOXYPODOPHYLLOTOXIN], the IC50 with KB came out at 0.0089 µM; with HeLa, 0.0069 µM.

In the case of `COc1cc([C@@H]2c3cc4c(cc3[C@@H](O[C@@H]3O[C@@H]5CO[C@@H](C)O[C@H]5[C@H](O)[C@H]3O)[C@H]3COC(=O)[C@H]23)OCO4)cc(OC)c1O` [ETOPOSIDE], the values for the IC50 in the experiment on KB and in the experiment on HeLa were 10 µM and 4 µM, respectively.

With `COc1cc([C@@H]2c3cc4c(cc3C(=O)[C@@H]3COC(=O)[C@H]23)OCO4)cc(OC)c1OC` [ISOPICROPODOPHYLLONE], the IC50 was greater than 100 µM in the experiment on KB and 32.1 µM in the experiment on HeLa.

Take `COc1cc([C@@H]2c3cc4c(cc3[C@H](O)[C@H]3COC(=O)[C@H]23)OCO4)cc(OC)c1OC` [PODOFILOX]: the half-inhibitory concentration (IC50) in the experiment on KB is 0.056 µM; with HeLa, 0.069 µM.

Regarding `COc1cc([C@@H]2c3cc4c(cc3[C@H](O[C@@H]3O[C@H](COC(C)=O)[C@@H](O)[C@H](O)[C@H]3O)[C@H]3COC(=O)[C@H]23)OCO4)cc(OC)c1OC` [SINOLIGNAN A], the IC50 in the experiment on KB stood at 8.76 µM; in the experiment with HeLa, 3.77 µM.

`COc1cc([C@@H]2c3cc4c(cc3[C@H](O[C@@H]3O[C@H](CO[C@@H]5O[C@H](CO)[C@@H](O)[C@H](O)[C@H]5O)[C@@H](O)[C@H](O)[C@H]3O)[C@H]3COC(=O)[C@@H]23)OCO4)cc(OC)c1O` [SINOLIGNAN B]: the IC50 in the experiment with KB and in the experiment on HeLa was greater than 100 µM in each case.
